Data from the supplement of paper PMC10307832.

Experiments:
Assay in all cases: relative viability (nuclei count vs DMSO), 5 days (fraction); higher = more cells survive
[1] = compound: C[As](C)SC[C@H](NC(=O)CC[C@H](N)C(=O)O)C(=O)NCC(=O)O [Darinaparsin] + Nc1ncn([C@H]2C[C@H](O)[C@@H](CO)O2)c(=O)n1 [Decitabine] (partner 2 µM)
Outline: (§1)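 One day after seeding in 1536-well plates, lung cancer cell lines were dosed by pin tool. Dosing was either single-drug or a fixed anchor-drug dose plus five library-drug doses (not always all listed) in √10 steps. After 5 days, nuclei were stained in one fix-and-stain step and counted on 4× images, and relative viability is the nuclei count of treated wells over that of vehicle wells, given as the median of duplicate plates.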

[2] = compound: C[As](C)SC[C@H](NC(=O)CC[C@H](N)C(=O)O)C(=O)NCC(=O)O [Darinaparsin] + Cc1cc(Nc2cc(N3CCN(C)CC3)nc(Sc3ccc(NC(=O)C4CC4)cc3)n2)n[nH]1 [Tozasertib] (partner 0.1 µM)
Outline: as §1

AZ628 + Pemetrexed = compound: CC1=C(C=C(C=C1)NC(=O)C2=CC(=CC=C2)C(C)(C)C#N)NC3=CC4=C(C=C3)N=CN(C4=O)C [AZ628] + Nc1nc2[nH]cc(CCc3ccc(C(=O)N[C@@H](CCC(=O)O)C(=O)O)cc3)c2c(=O)[nH]1 [Pemetrexed] (partner 0.2 µM)
Outline: as §1

QS11 + Foretinib = compound: C1CC2=C(C1)C=C(C=C2)OC3=NC(=C4C(=N3)N(C=N4)CC5=CC=C(C=C5)C6=CC=CC=C6)N[C@@H](CC7=CC=CC=C7)CO [QS11] + COc1cc2c(Oc3ccc(NC(=O)C4(C(=O)Nc5ccc(F)cc5)CC4)cc3F)ccnc2cc1OCCCN1CCOCC1 [Foretinib] (partner 0.25 µM)
Outline: as §1

| Cell Line | relative viability ([1]; first compound 0.08 µM) | relative viability ([1]; first compound 0.8 µM) | relative viability ([1]; first compound 2.53 µM) | relative viability ([1]; first compound 8 µM) | relative viability ([2]; first compound 0.08 µM) | relative viability ([2]; first compound 0.8 µM) | relative viability ([2]; first compound 2.53 µM) | relative viability ([2]; first compound 8 µM) | relative viability (AZ628 + Pemetrexed; first compound 0.08 µM) | relative viability (AZ628 + Pemetrexed; first compound 0.253 µM) | relative viability (AZ628 + Pemetrexed; first compound 0.8 µM) | relative viability (AZ628 + Pemetrexed; first compound 2.53 µM) | relative viability (AZ628 + Pemetrexed; first compound 8 µM) | relative viability (QS11 + Foretinib; first compound 0.08 µM) | relative viability (QS11 + Foretinib; first compound 0.253 µM) | relative viability (QS11 + Foretinib; first compound 0.8 µM) | relative viability (QS11 + Foretinib; first compound 2.53 µM) | relative viability (QS11 + Foretinib; first compound 8 µM) |
| --- | --- | --- | --- | --- | --- | --- | --- | --- | --- | --- | --- | --- | --- | --- | --- | --- | --- | --- |
| NCI-H2085 | 0.532 | 0.474 | 0.601 | 0.527 | 0.953 | 0.814 | 0.78 | 0.892 | 0.951 | 0.971 | 0.87 | 0.865 | 0.772 | 1.01 | 0.886 | 0.911 | 1.02 | 1 |
| NCI-H1793 | 0.461 | 0.483 | – | 0.485 | 0.344 | 0.305 | 0.278 | 0.385 | 1.16 | 0.617 | 0.971 | 0.757 | 0.522 | 0.796 | 0.657 | 0.767 | 0.573 | 0.935 |
| HCC-366 | 0.407 | – | 0.413 | 0.352 | 0.147 | 0.0892 | 0.149 | 0.168 | 0.156 | 0.215 | 0.225 | 0.169 | 0.161 | 0.985 | 0.962 | – | 0.895 | 0.147 |
| NCI-H596 | 1.02 | 1.11 | 1 | 1.15 | 1.13 | 0.958 | 0.872 | 0.979 | 0.496 | 0.485 | 0.521 | 0.525 | 0.521 | 0.979 | 0.743 | 0.924 | 0.841 | 0.97 |
| NCI-H2126 | 0.597 | 0.578 | 0.575 | 0.635 | 0.935 | 0.794 | 0.69 | 0.878 | 0.757 | 0.665 | 0.586 | 0.655 | 0.588 | 1.18 | 1.22 | 1.07 | 1.1 | 1.04 |
| EMC-BAC-2 | 0.916 | 0.907 | 1.18 | 0.969 | 0.251 | 0.28 | 0.299 | 0.277 | 0.481 | 0.494 | 0.476 | 0.516 | 0.589 | 1.03 | 1.02 | 0.857 | 0.652 | 0.622 |
| H3255 | 0.634 | 0.587 | 0.662 | 0.674 | 0.605 | 0.585 | 0.63 | 0.598 | 0.563 | 0.486 | 0.597 | 0.537 | 0.504 | 0.787 | 0.864 | – | 0.927 | 0.93 |
| NCI-H838 | 0.488 | 0.425 | 0.47 | 0.513 | 0.275 | 0.24 | 0.256 | 0.304 | 0.261 | 0.23 | 0.243 | 0.242 | 0.225 | 0.993 | 0.953 | 0.688 | 0.898 | 0.85 |
| NCI-H2009 | 0.412 | 0.354 | 0.375 | 0.398 | 0.927 | 0.682 | 0.731 | 0.884 | 1.1 | 1.09 | 1.05 | 1 | 0.464 | 1.24 | 1.24 | 1.09 | 0.98 | 1.11 |
| HCC-15 | 0.727 | 0.565 | 0.643 | 0.722 | 0.525 | 0.347 | 0.298 | 0.364 | 0.231 | 0.204 | 0.211 | 0.226 | 0.206 | 0.999 | 1.12 | 0.764 | 1.01 | 0.899 |
| NCI-H1395 | 0.79 | 0.659 | 0.727 | 0.645 | 0.839 | 0.771 | 0.765 | 0.723 | 0.939 | 0.789 | 0.806 | 0.637 | 0.712 | 0.893 | 0.964 | 1.02 | 1 | 1.09 |
